Experimental data as given in the METLIN SMRT retention time set (Domingo-Almenara et al. 2019).

Experiment: gradient 5% acetonitrile 3 min, to 50% in 2 min, to 85% in 15 min, held 3 min, 100 µL/min
Conditions: column: Zorbax Extend-C18 2.1 x 50 mm; eluents: water / acetonitrile, 0.1% formic acid
Method in brief: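 The system's dead and dwell volumes were 40 μL and 900 μL, with a Zorbax Extend-C18 column (2.1 × 50 mm, 1.8 μm) run at 100 μL/min in water and acetonitrile containing 0.1% formic acid each. Pure standards were analyzed in mixtures of ~100 molecules by HPLC–quadrupole time-of-flight mass spectrometry in positive and negative ionization mode. Retention time was assigned from computationally picked, manually inspected adduct peaks.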

RP-LC retention time [s]	SMILES
576	CCCNC(=O)C1CCN(c2ccc(SCC(=O)Nc3ccc(N(CC)CC)cc3C)nn2)CC1
991	COc1cccc(-c2nnc(Cc3nc(-c4cccc(F)c4)no3)o2)c1
1160	CCOc1ccccc1NC(=O)CSc1cc(N2CCN(c3ccccc3OC)CC2)ncn1
692	Cc1nn2c(CNC(=O)c3ccc(C(F)(F)F)cc3)c(C)nc2s1
609	Cc1cc(N2CCCCCC2)n2nc(CN3CCCCC3C)nc2n1 (stereo not given)
744	Cc1cc(S(=O)(=O)N2CCc3nn(C)c(=O)n3CC2)ccc1Cl
810	O=C(NCc1ccco1)N(c1ccccc1)c1ccccc1
998	CC(C)c1ccc(-n2nc(N3CCN(C(=O)c4cc5ccccc5[nH]4)CC3)ccc2=O)cc1
733	CC(C)NC(=O)c1ccc2c(c1)CCN2C(=O)C(C)C
1140	CCc1nc2cc(-c3noc(-c4ccccc4F)n3)ccc2o1
567	COC[C@@H]1CN(S(=O)(=O)c2cn(C)cn2)C[C@H]1c1ccccn1
887	O=C(NCCc1ccccc1)NCCC1CCN(S(=O)(=O)c2ccc(F)cc2)CC1
662	O=C(Cc1ccsc1)Nc1ccc2c(c1)CCC(=O)N2
774	COC(=O)COc1cc(-c2ccccc2)nc2ccc(NS(=O)(=O)c3ccccc3)cc12
620	CCn1c(=O)c(C(=O)NCCN2CCc3ccccc3C2)nc2cccnc21
838	COCc1cc2nn(CC(=O)Nc3ccc(C)cc3)c(=O)n2c(-c2ccccc2)n1
579	Cc1ccnc(N2CCC(C(=O)NCCCN3CCCC3=O)CC2)n1
612	CNC(=O)CCc1nc2ccccc2n(CC(=O)NCCc2ccc(S(N)(=O)=O)cc2)c1=O
652	O=C(Cc1ccccc1F)Nc1cnc(-c2cccnc2)nc1
725	CCOC(=O)c1c(C)[nH]c(C)c1S(=O)(=O)N1CCC(C(=O)N2CCn3c2nc2ccccc23)CC1
1140	Clc1ccccc1-c1noc(Cc2nc(-c3ccc4c(c3)OCO4)cs2)n1
982	O=c1c2nnn(Cc3ccc(Cl)cc3)c2ncn1Cc1nc(-c2ccc3c(c2)OCO3)no1
853	O=C(Cc1ccc(Cl)cc1)NC1CCN(c2ccc(F)cc2)C1=O (stereo not given)

RP-LC retention time [s]	SMILES
1080	COc1ccc(-c2nnc(-c3cc(S(=O)(=O)N4CCSCC4)ccc3Cl)o2)cc1
776	Cc1cc(=O)n2c(-c3ccc(NC(=O)Nc4ccc(F)c(F)c4)cc3)csc2n1
712	COc1ccc2c(c1)c(CN1CCC(C(=O)NC3CCCCCC3)CC1)cn2C
881	CC(C)Cn1ccc2c(cc(C(=O)Nc3ccccc3Br)n2C)c1=O
851	CCc1ccc(NC(=O)N2C[C@@H]3CN(S(=O)(=O)c4ccccc4)C[C@H](C2)O3)cc1
1080	O=C(CN1CCCCC1c1nc(-c2ccc(F)cc2)no1)NCc1ccc(F)cc1 (stereo not given)
1050	O=S(=O)(Nc1ccc(F)cc1)c1cccnc1Nc1ccccc1
587	COc1ccc2[nH]c3c(c2c1)CCNC31CCN(Cc2ccc(F)c(F)c2)CC1
717	O=C(NCc1ccccc1)N1CCN(Cc2nc3cc(Cl)ccc3o2)CC1
609	COc1ccc(C(=O)N2CCN(c3cc(C(C)C)n4cnnc4n3)CC2)c(OC)c1
1330	COc1cccc(-n2c(=O)c(C(=O)Nc3cccc(Cl)c3)c(O)c3cccnc32)c1
748	COc1ncc(C(=O)Nc2cc(C)ccc2C)c(C)n1
721	CCn1ccc2c(cc(C(=O)Nc3c(C)cccc3C)n2C)c1=O
716	O=C(NCC1OCCc2ccccc21)C(=O)N1CCCCC1 (stereo not given)
761	Cn1cnc(S(=O)(=O)N2CCC(c3noc(COCc4ccccc4)n3)C2)c1 (stereo not given)
836	COc1cccc(CNC(=O)N2CCCC2c2cc(C(C)C)no2)c1 (stereo not given)
792	CC(=O)N(C1CCOCC1)C1CCN(S(=O)(=O)c2cc(F)ccc2C)CC1
790	CCN1C(=O)CCc2cc(NS(=O)(=O)c3ccccc3C(=O)OC)ccc21
710	CC(=O)N1CCc2cc(N3CC(C(=O)Nc4ccccc4C(F)(F)F)CC3=O)ccc21 (stereo not given)
694	CCOC(=O)c1c(C)oc2ncnc(NCC3CCN(Cc4ccccc4F)CC3)c12
1110	Cc1ccc(-c2ncc(C(=O)N3CC=C(c4ccccc4)CC3)c(-c3ccncc3)n2)cc1
802	Cc1ccc(Cc2nnc(NC(=O)c3cc(C)n(C(C)C)n3)o2)cc1
762	Cc1ccsc1C(=O)N1CCOc2ccc(N3CCOCC3)cc2C1

RP-LC retention time [s]	SMILES
711	COC(=O)c1cnc2nc(C)ccc2c1Nc1ccc(Cl)cc1F
702	Cc1cc(C(=O)NC(C)C)c2cc(Br)ccc2n1
603	O=C(CCCc1nc2cccnc2n1Cc1ccccc1)N1CCN(c2ccccn2)CC1
592	O=C(Nc1nc(-c2cccnc2)cs1)C1CN(c2nc3ccccc3s2)C1
674	CC(NC(=O)c1ccco1)c1nc(-c2ccc3c(c2)ncn3C2CCCC2)no1 (stereo not given)
870	COc1ccc(-c2nc(Cn3cnc4nc5c(cc4c3=O)CC(C)CC5)c(C)o2)cc1OC (stereo not given)
660	CCn1cc(S(=O)(=O)N2CCC(N3CC4(CCCCC4)C3c3ccccc3)CC2)cn1 (stereo not given)
1230	COc1ccc2c(c1)-c1nc(NC(=O)c3cccc(Br)c3)sc1CC2
800	CCCN(CC(=O)N1CCc2sccc2C1COc1ccccc1OC)C(=O)COC (stereo not given)
689	O=C(c1csc(S(=O)(=O)N2CCC(C(=O)N3CCCCC3)CC2)c1)N1CCOCC1
759	CC1CCCCN1c1ccn2c(=O)n(CC(=O)Nc3ccc(F)cc3)nc2n1 (stereo not given)
677	Cc1cc(=O)c2c(C)ccc(C)c2[nH]1
639	CCOC(=O)C1CCc2sc(NC(=O)Cc3sc(C)nc3C)nc21 (stereo not given)
666	COCCNC(=O)CSc1nccc2c1ccn2Cc1ccccc1
597	Cc1ccsc1C(=O)NCc1ccc2c(c1)ncn2C
796	O=C(Cn1nc(N2CCOCC2)c2ccccc2c1=O)Nc1ccc(F)c(F)c1
570	CN1CCN(CCNC(=O)C2CCCN(c3ncnc4c3nc3n4CCCCC3)C2)CC1 (stereo not given)
933	CCCS(=O)(=O)N1CCC(c2noc(-c3ccccc3)n2)C1 (stereo not given)
1060	CCN(CC)S(=O)(=O)c1ccc2c(c1)cc(C(=O)NCCc1c[nH]c3ccc(Cl)cc13)n2C
734	COCCCCC(=NOCCN)c1ccc(C(F)(F)F)cc1
715	COc1cccc(CNC(=O)CN2CCN(Cc3ccc(C)cc3)C(=O)C2=O)c1
800	COCc1cc2nn(CC(=O)Nc3ccccc3)c(=O)n2c(-c2ccccc2)n1
668	COCCNC(=O)c1nnc(-c2ccc(S(=O)(=O)N3CCOCC3)cc2)o1

RP-LC retention time [s]	SMILES
1070	CCC(=O)Nc1ccc2c(c1)CN(C(=O)c1cccc(Cl)c1)C(C(=O)N1CCCC1)C2 (stereo not given)
952	COc1cc(NC(=O)c2cnc3c(c2)c(=O)n(C)c(=O)n3-c2ccc(C)cc2)cc(OC)c1
548	COc1cccc(OC)c1CN1CC(n2cnnc2-c2cccnc2)C1
615	CNC(=O)C1=CCN(C(=O)NC2CCCC2)CC1
631	COC[C@@H]1CN(Cc2ccc3cc[nH]c3c2)C[C@H]1c1nc(C)no1
570	O=C(NCCn1nc(-c2ccncc2)ccc1=O)c1ccc(C(F)(F)F)cc1
652	CC(=O)N1CCc2nn(CC(=O)N3CCN(c4ccccc4F)CC3)c(=O)cc2C1
858	Cn1ncc2c(N3CCN(c4ccccc4F)CC3)ncnc21
1220	CCn1c(=O)c(C)nc2cc(-c3noc(-c4cccc(Cl)c4)n3)ccc21
748	COc1ccc(-c2c(C)noc2NC(C)=O)cc1S(=O)(=O)Nc1cc(F)ccc1F
799	CCCNC(=O)N1CCCC(C)(C(=O)NCc2ccc(C)cc2)C1 (stereo not given)
610	Cc1ccc(CNC(=O)C(=O)NCC(c2ccc3c(c2)CCCN3C)N2CCOCC2)cc1 (stereo not given)
652	Cc1cccc(NS(=O)(=O)c2cc3n(c2)CCCNC3=O)c1
625	CCn1ccc(C(=O)N2CC(N(C3CCOCC3)S(C)(=O)=O)C2)n1
772	O=C(CSc1nnc2c3sc(N4CCCC4)nc3ncn12)Nc1ccccc1
810	Cc1c(C(=O)NCC2CC2)cnn1-c1ccc(-c2nc(C3CC3)no2)cn1
620	CC1=CC(=C2C=CC(=O)C=C2)C=C(C)N1C
599	NC1=C(Br)C(=O)c2ncccc2C1=O
595	O=C(CC1CCN(C(=O)C2CCCCC2)CC1)NCCCN1CCCC1
1080	Cc1ccc(-c2noc(-c3nn(CC(=O)N4CCCC4)c4ccccc34)n2)cc1

SMILES	RP-LC retention time [s]
COc1ccc2c(c1)C1(CCN(C(=O)Cc3ccccc3C)C1)C(=O)N2C (stereo not given)	826
